{"source": "patent US20150374851A1", "about": "“AAV VECTORS EXPRESSING SEC10 FOR TREATING KIDNEY DAMAGE” (The Trustees of the University of Pennsylvania, priority 2009, published 2015)", "key": {"[1]": {"test_system": "Sec10-overexpressing MDCK cells", "experimental": "(§1) Type II Madin-Darby canine kidney (MDCK) cells (Control cells) were obtained from Dr. K. Mostov (UCSF, San Francisco, Calif.). MDCK type II cells were overexpressing hSec10 (Sec10-overexpressing cells). See, e.g, Lipschutz et al, 2000 cited above. Cells were grown in modified Eagle's minimal essential medium (MEM) containing Earl's balanced salt solution and glutamine supplemented with 5% fetal calf serum, 100 U/ml penicillin, and 100 μg/m streptomycin on the plastic culture dishes. Some cells were grown on the 24-mm Transwell 0.45 μm polycarbonate filter units coated with collagen (Corning Life Sciences, Lowell, Mass.). Pore size on all filters was 0.4 μm. Cell monolayers were used for experiments after 7 d of culture with daily changes in medium. Cells were plated as single cells in a three-dimensional (3D) type I collagen gel. To culture collagen matrix, cells grown on plastic culture dishes were harvested using trypsin-EDTA, and suspended cells on the type I collagen gel and then seeded in chamber slide for 14 days and then treated with H2O2 (Sigma-Aldrich, Co.).\n(§2) Control cells and Sec10-overexpressing cells were grown on the Transwell filter for 7 days after seeding. TER was measured using epithelial volt-ohmmeter (Model EVOM, World Precision Instruments). TER values were presented as the measured resistance in ohm multiplied by the surface area of the Transwell filter.\n(§3) 1) control and Sec10-overexpressing cells were treated with U0126 alone for 30 min, U0126 plus H2O2 for 30 min, and then U0126 alone for 24 hrs (FIG. 5A), and\n(§4) 2) control and Sec10-overexpressing cells were treated with H2O2 for 30 min, and U0126 alone for 24 hrs (FIG. 5B)."}, "control MDCK cells": {"test_system": "control MDCK cells", "experimental": "as §1, §2, §3, §4"}, "[2]": {"test_system": "Sec10-overexpressing MDCK cells", "details": "U0126 30 min, then 1 mM H2O2 plus U0126 30 min", "experimental": "(§5) Normal and hSec10-overexpressing (Sec10) MDCK cells were grown on collagen-matrix for 12-14 days as described herein and then treated with 1 mM of hydrogen peroxide for 30 min. Some cells were treated with 10 μM U0126 30 min before the treatment of hydrogen peroxide. After the treatment cells were fixed with 4% paraformaldehyde and then stained with F-actin phalloidin-conjugated cy3. Numbers of damaged cysts were counted using fluorescence microscope.\nas §1, with “To culture collagen matrix, cells grown on plastic culture dishes were harvested using trypsin-EDTA, and suspended cells on the type I collagen gel and then seeded in chamber slide for 14 days and then treated with H2O2 (Sigma-Aldrich, Co.).” left out"}, "normal MDCK cells": {"test_system": "normal MDCK cells", "details": "U0126 30 min, then 1 mM H2O2 plus U0126 30 min", "experimental": "as §5\nas §1, with “To culture collagen matrix, cells grown on plastic culture dishes were harvested using trypsin-EDTA, and suspended cells on the type I collagen gel and then seeded in chamber slide for 14 days and then treated with H2O2 (Sigma-Aldrich, Co.).” left out"}, "[3]": {"test_system": "phosphorylated (active) ERK", "details": "10 μM U0126 for 30 min, then 1 mM H2O2 for 30 min; Transwell filter", "description": "Normal and hSec10-overexpressing (Sec10) MDCK cells were grown on transwell filter culture dish at confluence, incubated in either vehicle or 10 μM of U0126 (an inhibitor of ERK activation) for 30 min, and then treated with 1 mM of H2O2 for 30 min. After 30 min of incubation in U0126 cells were harvested and used to detect the levels of phosphorylated ERK. Cells were lysed in SDS buffer.\nBriefly, cells or kidneys were harvested in the RIPA (Sigma Co.) containing proteinase inhibitor cocktail (Sigma. Co) and phosphatase inhibitor cocktail (Sigma. Co) and centrifuged 14,000 rpm for 20 min at 4° C. Supernatants, then, were collected and protein concentration was determined using BCA protein assay kit. Protein samples were mix SDS-sample buffer and denatured by 5 min of boiling at 95° C. The protein samples were separated on 4-12% SDS-PAGE gels and then transferred to an Immobilon membrane (Millipore Corp., Bedford, Mass.). The membranes were blocked by 5% of non-fat dry milk in PBS containing of 0.1% Tween-20 (PBS-T), and incubated in anti-phospho-ERK (1:1000, Cell signaling), -total-ERK (1:5000, Cell signaling), and -Sec10 (1:500; Lipschutz lab.) antibodies overnight at 4° C. After washing with 3 times with 0.1% PBS-T, the membranes were incubated with horseradish peroxidase-conjugated secondary antibodies for 1 h at RT. […]"}}, "data": [{"smiles": "N#CC(=C(/N)Sc1ccccc1N)/C(C#N)=C(\\N)Sc1ccccc1N", "note": "[U0126]", "values": [{"measurement": "TER relative to TER in H2O2 alone", "setting": "[1]", "result": "about 80%"}, {"measurement": "TER versus U0126-nontreated cells", "setting": "[1]; Sec10-overexpressing cells, 24 hrs after removal of H2O2", "result": "significantly lower"}, {"measurement": "H2O2-induced decrease of TER", "setting": "[1]; Sec10-overexpressing cells, U0126 pretreatment 30 min, 1 mM H2O2", "result": "accelerated H2O2-induced decrease of TER"}, {"measurement": "TER relative to TER in H2O2 alone", "setting": "control MDCK cells", "result": "about 83%"}, {"measurement": "TER recovery versus non-U0126 treated cells", "setting": "control MDCK cells; control cells, 24 hrs after removal of H2O2", "result": "not significantly different"}, {"measurement": "H2O2-induced decrease of TER", "setting": "control MDCK cells; control cells, U0126 pretreatment 30 min, 1 mM H2O2", "result": "accelerated H2O2-induced decrease of TER"}, {"measurement": "Numbers of damaged cysts", "setting": "[2]", "result": "increased"}, {"measurement": "Numbers of damaged cysts", "setting": "normal MDCK cells", "result": "increased"}, {"measurement": "ERK phosphorylation caused by H2O2 treatment", "setting": "[3]", "result": "blocked ERK phosphorylation"}]}]}
